Experiments:
Cytochrome P450 2A6 = target: T1, Cytochrome P450 2A6 (Homo sapiens, UniProt P11509); details: bti-tn-5b1-4; note: in other assays of this panel Not Active means under 50% inhibition at 10 µM
T1 sequence (P11509 whole entry): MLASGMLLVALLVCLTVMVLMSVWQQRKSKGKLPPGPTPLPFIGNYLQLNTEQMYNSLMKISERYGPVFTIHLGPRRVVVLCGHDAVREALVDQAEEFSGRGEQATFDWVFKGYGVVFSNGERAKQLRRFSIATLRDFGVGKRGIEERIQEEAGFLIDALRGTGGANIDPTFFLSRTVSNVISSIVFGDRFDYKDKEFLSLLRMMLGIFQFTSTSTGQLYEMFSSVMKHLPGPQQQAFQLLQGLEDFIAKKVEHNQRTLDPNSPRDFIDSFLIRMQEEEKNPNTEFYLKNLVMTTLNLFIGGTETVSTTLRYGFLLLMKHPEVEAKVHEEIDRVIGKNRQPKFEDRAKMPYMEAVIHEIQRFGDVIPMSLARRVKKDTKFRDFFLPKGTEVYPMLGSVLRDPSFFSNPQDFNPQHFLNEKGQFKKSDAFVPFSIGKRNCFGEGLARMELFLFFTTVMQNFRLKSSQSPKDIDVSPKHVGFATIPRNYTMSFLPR

[1] = DRUGMATRIX: Calcium Channel Type L, Benzothiazepine radioligand binding (ligand: [3H] Diltiazem); assay type: cell membranes, Rattus norvegicus, Wistar, Brain, Membrane; details: Not Active = under 50% inhibition at 10 µM
Cytochrome P450 2C19 = Cytochrome P450 2C19 (Homo sapiens, UniProt P33261); details: bti-tn-5b1-4; note: in other assays of this panel Not Active means under 50% inhibition at 10 µM
[2] = target: T2, Cysteinyl leukotriene receptor 1 (Homo sapiens, UniProt Q9Y271); assay type: cell membranes, Membrane; details: cho-k1; note: in other assays of this panel Not Active means under 50% inhibition at 10 µM
T2 sequence (Q9Y271 whole entry): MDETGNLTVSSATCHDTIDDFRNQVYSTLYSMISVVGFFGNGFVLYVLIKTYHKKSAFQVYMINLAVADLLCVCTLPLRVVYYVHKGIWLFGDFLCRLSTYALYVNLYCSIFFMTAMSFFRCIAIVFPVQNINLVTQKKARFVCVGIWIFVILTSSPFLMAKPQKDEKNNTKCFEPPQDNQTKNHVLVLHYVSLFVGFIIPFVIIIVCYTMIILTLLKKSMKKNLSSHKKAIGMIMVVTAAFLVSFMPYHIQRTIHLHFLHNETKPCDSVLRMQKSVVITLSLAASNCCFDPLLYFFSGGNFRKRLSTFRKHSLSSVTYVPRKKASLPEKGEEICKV

[3] = target: T3, C-X-C chemokine receptor type 2 (Homo sapiens, UniProt P25025); assay type: cell membranes, Membrane; details: cho-k1; note: in other assays of this panel Not Active means under 50% inhibition at 10 µM
T3 sequence (P25025 whole entry): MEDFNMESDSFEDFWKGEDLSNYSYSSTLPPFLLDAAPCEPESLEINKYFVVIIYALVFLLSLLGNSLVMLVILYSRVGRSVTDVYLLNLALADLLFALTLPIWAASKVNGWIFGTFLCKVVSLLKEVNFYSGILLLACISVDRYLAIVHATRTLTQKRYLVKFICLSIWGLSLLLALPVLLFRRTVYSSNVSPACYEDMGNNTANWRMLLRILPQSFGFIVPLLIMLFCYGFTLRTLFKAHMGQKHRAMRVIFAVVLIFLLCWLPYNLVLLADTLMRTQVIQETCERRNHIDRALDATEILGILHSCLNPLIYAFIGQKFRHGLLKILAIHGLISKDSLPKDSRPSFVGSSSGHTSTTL

[4] = target: Beta-1 adrenergic receptor (Homo sapiens, UniProt P08588); experiment: DRUGMATRIX: Adrenergic beta1 radioligand binding (ligand: [125I] Cyanopindolol); assay type: cell membranes, CHO-K1, Membrane; details: cho-k1; Not Active = under 50% inhibition at 10 µM
Chain of Beta-1 adrenergic receptor (P08588 whole entry): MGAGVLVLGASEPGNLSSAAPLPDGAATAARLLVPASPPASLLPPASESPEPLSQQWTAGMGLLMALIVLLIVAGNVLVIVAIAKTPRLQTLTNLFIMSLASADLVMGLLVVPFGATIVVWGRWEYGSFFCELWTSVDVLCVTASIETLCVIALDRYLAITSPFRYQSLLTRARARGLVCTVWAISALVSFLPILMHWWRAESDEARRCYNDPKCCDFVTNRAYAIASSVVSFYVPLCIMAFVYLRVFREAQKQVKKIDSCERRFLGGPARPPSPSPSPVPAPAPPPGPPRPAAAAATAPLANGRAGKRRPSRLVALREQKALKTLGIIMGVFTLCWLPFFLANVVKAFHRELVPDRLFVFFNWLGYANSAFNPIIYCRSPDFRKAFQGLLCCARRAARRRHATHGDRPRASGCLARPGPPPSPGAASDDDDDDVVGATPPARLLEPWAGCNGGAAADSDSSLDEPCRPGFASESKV

Chain of Cytochrome P450 2C19 (P33261 whole entry): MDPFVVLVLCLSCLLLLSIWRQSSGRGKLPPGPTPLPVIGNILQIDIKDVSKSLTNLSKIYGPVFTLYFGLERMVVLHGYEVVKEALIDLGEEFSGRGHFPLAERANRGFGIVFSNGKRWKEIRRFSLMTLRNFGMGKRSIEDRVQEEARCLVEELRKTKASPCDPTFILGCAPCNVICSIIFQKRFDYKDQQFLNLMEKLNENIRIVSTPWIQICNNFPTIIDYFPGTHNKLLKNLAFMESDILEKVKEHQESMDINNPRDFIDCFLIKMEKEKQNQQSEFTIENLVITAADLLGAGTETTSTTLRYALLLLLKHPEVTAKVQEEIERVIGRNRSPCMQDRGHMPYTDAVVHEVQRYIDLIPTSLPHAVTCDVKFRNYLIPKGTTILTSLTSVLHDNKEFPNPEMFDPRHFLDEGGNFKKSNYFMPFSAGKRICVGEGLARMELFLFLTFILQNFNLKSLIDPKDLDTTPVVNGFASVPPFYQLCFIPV

GADOPENTETATE DIMEGLUMINE
Not Active: IC50 (Cytochrome P450 2A6) | Ki (Cytochrome P450 2A6) | IC50 [1] | Ki [1] | IC50 (Cytochrome P450 2C19) | Ki (Cytochrome P450 2C19) | IC50 [2] | Ki [2] | IC50 [3] | Ki [3] | IC50 [4] | Ki [4]

GENTAMICIN
Not Active: IC50 (Cytochrome P450 2A6) | Ki (Cytochrome P450 2A6) | IC50 [1] | Ki [1] | IC50 (Cytochrome P450 2C19) | Ki (Cytochrome P450 2C19) | IC50 [2] | Ki [2] | IC50 [3] | Ki [3] | IC50 [4] | Ki [4]

GRAMICIDIN
Not Active: IC50 (Cytochrome P450 2A6) | Ki (Cytochrome P450 2A6) | IC50 [1] | Ki [1] | IC50 (Cytochrome P450 2C19) | Ki (Cytochrome P450 2C19) | IC50 [2] | Ki [2] | IC50 [3] | Ki [3] | IC50 [4] | Ki [4]

NYSTATIN
Not Active: IC50 (Cytochrome P450 2A6) | Ki (Cytochrome P450 2A6) | IC50 [1] | Ki [1] | IC50 (Cytochrome P450 2C19) | Ki (Cytochrome P450 2C19) | IC50 [2] | Ki [2] | IC50 [3] | Ki [3] | IC50 [4] | Ki [4]

— ChEMBL document CHEMBL1909046, “DrugMatrix in vitro pharmacology data”
